Reference: ChEMBL document CHEMBL3813635, “Development of new Malt1 inhibitors and probes” (Bioorg Med Chem, 2016)
Activity calls are given as the source filed them. No cut-off for these calls is given here.

What was measured:
[1] = target: T1, Mucosa-associated lymphoid tissue lymphoma translocation protein 1 (Homo sapiens, UniProt Q9UDY8); test: (§1) Inhibition of recombinant Malt1 (unknown origin) at 10 to 1000 uM preincubated for 1 hr followed by (S)-1-((6-(4-(4-(5,5-Difluoro-3,7-bis(4-methoxyphenyl)-5H-4l4,5l4-dipyrrolo[1,2-c:20,10-f][1,3,2]diazaborinin-10-yl)butyl)-1H-1,2,3-triazol-1-yl)hexanoyl)-L-valyl-L-arginyl)-N-((S)-1-fluoro-6-guanidino-2-oxohexan-3-yl)pyrrolidine-2-carboxamide addition and incubated for 1 hr by SDS-PAGE based competitive activity-based protein profiling assay
T1 sequence (Q9UDY8 whole entry): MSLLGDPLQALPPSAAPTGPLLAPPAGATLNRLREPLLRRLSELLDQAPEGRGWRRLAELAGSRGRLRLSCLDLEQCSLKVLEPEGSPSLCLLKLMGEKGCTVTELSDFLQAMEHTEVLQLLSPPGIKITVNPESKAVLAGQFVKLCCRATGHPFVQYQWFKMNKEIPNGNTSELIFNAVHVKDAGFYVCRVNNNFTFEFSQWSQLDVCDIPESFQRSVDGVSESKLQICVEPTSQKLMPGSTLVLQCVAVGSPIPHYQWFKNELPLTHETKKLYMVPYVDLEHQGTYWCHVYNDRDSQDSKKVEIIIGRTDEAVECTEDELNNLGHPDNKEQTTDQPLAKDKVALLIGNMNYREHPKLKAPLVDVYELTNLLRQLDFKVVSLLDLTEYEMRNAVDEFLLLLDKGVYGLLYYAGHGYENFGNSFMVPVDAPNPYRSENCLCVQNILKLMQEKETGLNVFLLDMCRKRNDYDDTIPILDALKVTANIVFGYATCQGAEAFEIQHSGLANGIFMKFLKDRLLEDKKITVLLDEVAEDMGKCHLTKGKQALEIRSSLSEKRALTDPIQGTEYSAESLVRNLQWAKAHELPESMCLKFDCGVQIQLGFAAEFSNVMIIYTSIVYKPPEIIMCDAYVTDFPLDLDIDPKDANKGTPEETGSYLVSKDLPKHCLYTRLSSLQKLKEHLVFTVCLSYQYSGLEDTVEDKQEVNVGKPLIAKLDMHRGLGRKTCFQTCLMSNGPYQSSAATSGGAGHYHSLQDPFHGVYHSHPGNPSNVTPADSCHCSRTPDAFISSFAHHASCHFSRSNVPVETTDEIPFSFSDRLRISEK

[2] = target: T2, Mucosa-associated lymphoid tissue lymphoma translocation protein 1 (Homo sapiens) (UniProt Q9UDY8); test: as §1
T2 sequence (whole entry): T1 sequence (Q9UDY8 whole entry)

[3] = target: T1, Mucosa-associated lymphoid tissue lymphoma translocation protein 1; test: as §1, with “at 1” for “at 10”, “to 100” for “to 1000”
[4] = target: T2, Mucosa-associated lymphoid tissue lymphoma translocation protein 1 (Homo sapiens); test: as above
[5] = target: T2, Mucosa-associated lymphoid tissue lymphoma translocation protein 1 (Homo sapiens); test: Binding affinity to Flag-tagged Malt1 (unknown origin) overexpressed in human Jurkat T cells assessed as protein labeling at 1 uM after 50 mins by Western blot analysis; format: cell-based
[6] = target: T2, Mucosa-associated lymphoid tissue lymphoma translocation protein 1 (Homo sapiens); test: Binding affinity to Malt1 in phorbol 12-myristate 13-acetate/ionomycin stimulated human Jurkat T cells assessed as protein labeling at 1 uM after 50 mins by SDS-PAGE based activity-based protein profiling assay; format: cell-based
[7] = target: T2, Mucosa-associated lymphoid tissue lymphoma translocation protein 1 (Homo sapiens); test: Binding affinity to Malt1 in phorbol 12-myristate 13-acetate/ionomycin stimulated human Jurkat T cells assessed as protein labeling at 3 uM after 50 mins by SDS-PAGE based activity-based protein profiling assay; format: cell-based
[8] = target: T2, Mucosa-associated lymphoid tissue lymphoma translocation protein 1 (Homo sapiens); test: Binding affinity to recombinant GST-Malt1 (325 to 760 residues) (unknown origin) assessed as protein labeling at 0.1 to 1 uM after 1 hr by SDS-PAGE based activity-based protein profiling assay
Jurkat = test: Binding affinity to Malt1 C/A mutant (unknown origin) overexpressed in human Jurkat T cells assessed as protein labeling at 1 uM after 50 mins by Western blot analysis; format: cell-based
[9] = target: T2, Mucosa-associated lymphoid tissue lymphoma translocation protein 1 (Homo sapiens); test: Binding affinity to recombinant GST-Malt1 (325 to 760 residues) (unknown origin) assessed as protein labeling at 1 uM after 1 hr by SDS-PAGE based activity-based protein profiling assay
[10] = target: T2, Mucosa-associated lymphoid tissue lymphoma translocation protein 1 (Homo sapiens); test: Binding affinity to recombinant GST-Malt1 (325 to 760 residues) (unknown origin) assessed as protein labeling at 0.05 to 0.5 uM after 1 hr by SDS-PAGE based activity-based protein profiling assay
[11] = target: T2, Mucosa-associated lymphoid tissue lymphoma translocation protein 1 (Homo sapiens); test: Binding affinity to Malt1 in phorbol 12-myristate 13-acetate/ionomycin stimulated human Jurkat T cells assessed as protein labeling at 1 to 3 uM after 50 mins by SDS-PAGE based activity-based protein profiling assay; format: cell-based

IC50 [1] [µM] | pIC50(app) [2] | SMILES | further results
93 | 4.03 | COCCOc1nc(-c2cccc(C(F)(F)F)c2)n(-c2ccc(NC(=O)CCl)cc2)n1 | 
22 | 4.66 | COCCOc1nc(-c2ccc(-c3ccccc3)cc2)n(-c2ccc(NC(=O)CCl)cc2)n1 | 
26 | 4.57 | COCCOc1nc(-c2cccc(Cl)c2)n(-c2ccc(NC(=O)CCl)cc2)n1 | 
1.6 | 5.81 | COCCOc1nc(-c2ccc(Cl)cc2)n(-c2ccc(NC(=O)CCl)cc2)n1 | IC50 [3]: 3 µM; pIC50(app) [4]: 5.52
 |  | COCCOc1nc(-c2ccc(Cl)c(Cl)c2)n(-c2ccc(NC(=O)CCl)cc2)n1 | IC50 [3]: 7.8 µM; pIC50(app) [4]: 5.11
12 | 4.92 | COCCOc1nc(-c2ccc(OC)c(OC)c2)n(-c2ccc(NC(=O)CCl)cc2)n1 | 
22 | 4.66 | COCCOc1nc(-c2ccc(C(F)(F)F)cc2)n(-c2ccc(NC(=O)CCl)cc2)n1 | 
6.8 | 5.17 | COCCOc1nc(-c2ccc(F)cc2)n(-c2ccc(NC(=O)CCl)cc2)n1 | IC50 [3]: 10 µM; pIC50(app) [4]: 4.99
88 | 4.06 | COCCOc1nc(-c2ccc3c(c2)OCO3)n(-c2ccc(NC(=O)CCl)cc2)n1 | 
34 | 4.47 | C=CC(=O)Nc1ccc(-n2nc(OCCOC)nc2-c2ccc(Cl)c(Cl)c2)cc1 | 
 |  | COc1ccc(C2=[N+]3C(=C(CCCCc4cn(CCCCCC(=O)N[C@H](C(=O)N[C@@H](CCCNC(=N)N)C(=O)N5CCC[C@H]5C(=O)N[C@@H](CCCNC(=N)N)C(=O)CF)C(C)C)nn4)c4ccc(-c5ccc(OC)cc5)n4[B-]3(F)F)C=C2)cc1 | Activity [5]: Active; Activity [6]: inactive; Activity [7]: Active; Activity [8]: Active; Activity (Jurkat): inactive
278 | 3.56 | COCCOc1nc(-c2cccc(C)c2)n(-c2ccc(NC(=O)CCl)cc2)n1 | 
1.5 | 5.82 | COCCOc1nc(-c2ccc(Br)cc2)n(-c2ccc(NC(=O)CCl)cc2)n1 | IC50 [3]: 2.1 µM; pIC50(app) [4]: 5.68
194 | 3.71 | COCCOc1nc(-c2cccc(OC)c2)n(-c2ccc(NC(=O)CCl)cc2)n1 | 
15 | 4.82 | COCCOc1nc(-c2ccc(C)c(C)c2)n(-c2ccc(NC(=O)CCl)cc2)n1 | 
 |  | CC1=CC(C)=[N+]2C1=Cc1ccc(CCC(=O)N[C@@H](CC(C)C)C(=O)N[C@@H](CCCNC(=N)N)C(=O)N[C@@H](CO)C(=O)N[C@@H](CCCNC(=N)N)C(=O)COC(=O)c3c(C)cccc3C)n1[B-]2(F)F | Activity [5]: Active; Activity [6]: Active; Activity [9]: Active; Activity (Jurkat): inactive
26 | 4.59 | COCCOc1nc(-c2ccc(F)c(F)c2)n(-c2ccc(NC(=O)CCl)cc2)n1 | 
88 | 4.05 | COCCOc1nc(-c2cccc(F)c2)n(-c2ccc(NC(=O)CCl)cc2)n1 | 
17 | 4.78 | COCCOc1nc(-c2cccc(Br)c2)n(-c2ccc(NC(=O)CCl)cc2)n1 | 
 |  | CN1\C(=C/C=C/C=C/C2=[N+](CCCCCC(=O)NCCOc3nc(-c4ccc(Cl)c(Cl)c4)n(-c4ccc(NC(=O)CCl)cc4)n3)c3ccccc3C2(C)C)C(C)(C)c2ccccc21 | Activity [5]: Active; Activity [9]: Active; Activity [10]: inactive; Activity (Jurkat): Active; Activity [11]: inactive
45 | 4.35 | COCCOc1nc(-c2ccc(OC)cc2)n(-c2ccc(NC(=O)CCl)cc2)n1 | 
9 | 5.05 | COCCOc1nc(-c2ccc(C)cc2)n(-c2ccc(NC(=O)CCl)cc2)n1 | IC50 [3]: 8.2 µM; pIC50(app) [4]: 5.09
98 | 4.01 | COCCOc1nc(-c2ccccc2)n(-c2ccc(NC(=O)CCl)cc2)n1 | 
